# Results taken from patent US9833497B2, “Human originated EGF domain proteins and use of the same” (CHENGDU SOURCEBIO LIMITED-LIABILITY COMPANY, priority 2013, dated 2017).
# Experiments:
# Type in all cases: cell-based
# E. coli DH5α = test: Antibacterial activity: MIC and growth curve against E. coli DH5α in 96-well plate; conditions: minimal inhibitory concentration against E. coli DH5α; 96-well plate, 5×10^5 CFU/mL, 37° C., judged after 8 h
# How it was run: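 Log-phase bacteria (OD600 ~0.5) resuspended in LB at 5×10^5 CFU/mL, exposed to recombinant protein at 50, 25, 12.5 μg/mL final in triplicate, 37 °C shaking at 175 rpm. OD600 read every 30 min; MIC is lowest concentration showing no growth.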
# E. coli BL21 = test: MIC against Gram-negative bacteria: E. coli BL21; conditions: 5×10^5 CFU/mL
# How it was run: (§1)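 Antibacterial activity of purified human EGF domain proteins: two-fold concentration series, triplicate wells, LB broth, 5×10^5 CFU/mL bacteria, 37° C shaking incubation. The lowest concentration without growth defines the MIC.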
# Pseudomonas aeruginosa = test: MIC against Gram-negative bacteria: Pseudomonas aeruginosa; conditions: 5×10^5 CFU/mL
# How it was run: as §1
# Klebsiella pneumonia = test: MIC against Gram-negative bacteria: Klebsiella pneumonia; conditions: 5×10^5 CFU/mL
# How it was run: as §1
# Enterobacter cloacae = test: MIC against Gram-negative bacteria: Enterobacter cloacae; conditions: 5×10^5 CFU/mL
# How it was run: as §1
# Aeromonas hydrophila = test: MIC against Gram-negative bacteria: Aeromonas hydrophila; conditions: 5×10^5 CFU/mL
# How it was run: as §1
# Citrobacter diversus = test: MIC against Gram-negative bacteria: Citrobacter diversus; conditions: 5×10^5 CFU/mL
# How it was run: as §1
# Moraxella catarrhalis = test: MIC against Gram-negative bacteria: Moraxella catarrhalis; conditions: 5×10^5 CFU/mL
# How it was run: as §1
# Proteus mirabilis = test: MIC against Gram-negative bacteria: Proteus mirabilis; conditions: 5×10^5 CFU/mL
# How it was run: as §1
# Proteus vulgaris = test: MIC against Gram-negative bacteria: Proteus vulgaris; conditions: 5×10^5 CFU/mL
# How it was run: as §1
# Serratia marcescens = test: MIC against Gram-negative bacteria: Serratia marcescens; conditions: 5×10^5 CFU/mL
# How it was run: as §1
# [1] = Pseudomonas aeruginosa, 96-well plate, 37° C., 10 h
# [2] = Klebsiella pneumonia, 96-well plate, 37° C., 10 h
# [3] = Enterobacter cloacae, 96-well plate, 37° C., 10 h
# [4] = Aeromonas hydrophila, 96-well plate, 37° C., 10 h
# [5] = Citrobacter diversus, 96-well plate, 37° C., 10 h
# [6] = Moraxella catarrhalis, 96-well plate, 37° C., 10 h
# [7] = Proteus mirabilis, 96-well plate, 37° C., 10 h
# [8] = Proteus vulgaris, 96-well plate, 37° C., 10 h
# [9] = Serratia marcescens, 96-well plate, 37° C., 10 h
Substance,MIC (E. coli DH5α),"MIC E. coli BL21 (E. coli BL21; 96-well plate, 37° C., 10 h)","MIC P. aeruginosa (Pseudomonas aeruginosa; 96-well plate, 37° C., 10 h)","MIC K. pneumonia (Klebsiella pneumonia; 96-well plate, 37° C., 10 h)","MIC E. cloacae (Enterobacter cloacae; 96-well plate, 37° C., 10 h)","MIC A. hydrophila (Aeromonas hydrophila; 96-well plate, 37° C., 10 h)","MIC C. diversus (Citrobacter diversus; 96-well plate, 37° C., 10 h)","MIC M. catarrhalis (Moraxella catarrhalis; 96-well plate, 37° C., 10 h)","MIC P. mirabilis (Proteus mirabilis; 96-well plate, 37° C., 10 h)","MIC P. vulgaris (Proteus vulgaris; 96-well plate, 37° C., 10 h)","MIC (μg/mL) E. coli BL21 (E. coli BL21; 96-well plate, 37° C., 10 h)",MIC (μg/mL) P. aeruginosa (Pseudomonas aeruginosa; [1]),MIC (μg/mL) K. pneumonia (Klebsiella pneumonia; [2]),MIC (μg/mL) E. cloacae (Enterobacter cloacae; [3]),MIC (μg/mL) A. hydrophila (Aeromonas hydrophila; [4]),MIC (μg/mL) C. diversus (Citrobacter diversus; [5]),MIC (μg/mL) M. catarrhalis (Moraxella catarrhalis; [6]),MIC (μg/mL) P. mirabilis (Proteus mirabilis; [7]),MIC (μg/mL) P. vulgaris (Proteus vulgaris; [8]),MIC (μg/mL) S. marcescens (Serratia marcescens; [9]),also measured
PRT230 (DVDECADPRACPEHATCNNTVGNYSCFCNPGFESSSGHLSFQGLKASCE; listed as Homo sapiens),25 µg/mL,–,–,–,–,–,–,–,–,–,–,–,–,–,–,–,–,–,–,–,"MIC (μg/mL) E. coli BL21 (E. coli BL21; 10 h cultivation at 37° C.): 12.5 µg/mL; MIC (μg/mL) P. aeruginosa (Pseudomonas aeruginosa; P. aeruginosa, 10 h cultivation at 37° C.): 25 µg/mL; MIC (μg/mL) K. pneumonia (Klebsiella pneumonia; K. pneumonia, 10 h cultivation at 37° C.): 12.5 µg/mL; MIC (μg/mL) E. cloacae (Enterobacter cloacae; E. cloacae, 10 h cultivation at 37° C.): 25 µg/mL; MIC (μg/mL) A. hydrophila (Aeromonas hydrophila; A. hydrophila, 10 h cultivation at 37° C.): 12.5 µg/mL; MIC (μg/mL) C. diversus (Citrobacter diversus; C. diversus, 10 h cultivation at 37° C.): 25 µg/mL; MIC (μg/mL) M. catarrhalis (Moraxella catarrhalis; M. catarrhalis, 10 h cultivation at 37° C.): 12.5 µg/mL; MIC (μg/mL) P. mirabilis (Proteus mirabilis; P. mirabilis, 10 h cultivation at 37° C.): 50 µg/mL; MIC (μg/mL) P. vulgaris (Proteus vulgaris; P. vulgaris, 10 h cultivation at 37° C.): 12.5 µg/mL; MIC (μg/mL) S. marcescens (Serratia marcescens; S. marcescens, 10 h cultivation at 37° C.): 50 µg/mL"
PRT727 (EFDDCQIWGICDQKCESRPGRHLCHCEEGYILERGQYCK; listed as Homo sapiens),12.5 µg/mL,25 µg/mL,50 µg/mL,12.5 µg/mL,50 µg/mL,25 µg/mL,12.5 µg/mL,25 µg/mL,50 µg/mL,12.5 µg/mL,–,–,–,–,–,–,–,–,–,–,"MIC S. marcescens (Serratia marcescens; 96-well plate, 37° C., 10 h): 50 µg/mL"
PRT610 (CSCDPSGSIDECNIETGRCVCKDNVEGFNCERCKPGFFNLESSNPRGCTP; listed as Homo sapiens),50 µg/mL,25 µg/mL,12.5 µg/mL,25 µg/mL,50 µg/mL,12.5 µg/mL,50 µg/mL,12.5 µg/mL,50 µg/mL,12.5 µg/mL,–,–,–,–,–,–,–,–,–,–,"MIC S. marcescens (Serratia marcescens; 96-well plate, 37° C., 10 h): 50 µg/mL"
PRT117 (DVDECALGRSPCAQGCTNTDGSFHCSCEEGYVLAGEDGTQCQ; listed as Homo sapiens),12.5 µg/mL,–,–,–,–,–,–,–,–,–,12.5 µg/mL,25 µg/mL,12.5 µg/mL,25 µg/mL,12.5 µg/mL,25 µg/mL,12.5 µg/mL,25 µg/mL,12.5 µg/mL,12.5 µg/mL,–
PRT83 (DDNVCLREPCENYMKCVSVLRFDSSAPFLASASTLFRPIQPIAGLRCRCPPGFTGDFCE; listed as Homo sapiens),12.5 µg/mL,–,–,–,–,–,–,–,–,–,12.5 µg/mL,25 µg/mL,12.5 µg/mL,25 µg/mL,12.5 µg/mL,25 µg/mL,12.5 µg/mL,12.5 µg/mL,12.5 µg/mL,12.5 µg/mL,–
PRT46 (CQCNGHSTCINNNVCEQCKNLTTGKQCQDCMPGYYGDPTNGGQCTA; listed as Homo sapiens),25 µg/mL,–,–,–,–,–,–,–,–,–,12.5 µg/mL,50 µg/mL,12.5 µg/mL,25 µg/mL,12.5 µg/mL,12.5 µg/mL,12.5 µg/mL,25 µg/mL,12.5 µg/mL,100 µg/mL,–
